# Measured values published in patent publication US4908452A, “Process for preparing nitriles” (Merck & Co., Inc., priority 1987, dated 1990).
# Test system: Factor XIIIa
# Test: Factor XIIIa inhibitor assay (14C-putrescine incorporation into N,N-dimethyl-casein)
# Type: biochemical, human
# Protocol: The Factor XIIIa inhibitor activity may be determined by an assay described in Methods in Enzymology, Vol. 45, Ch 15, pages 177-191 (1976) and using Factor XIII isolated from human plasma. Briefly, the assay is carried out by adding a substrate mixture of ^14 C-putrescine and N,N-dimethyl-casein to an Factor XIII assay mixture previously prepared by adding thrombin and dithiothreitol to Factor XIII in glycerol/water and tris(hydroxymethyl)aminomethane hydrochloride and then adding calcium ions, thereafter, incubating at 37° for 20 minutes, withdrawing samples to a filter disk, precipitating the casein with trichloracetic acid and then counting to determine the extent of incorporation of inhibitor of ^14 C-putrescine in casein. The result for 3-(1-oxo-4,7-nonadienyl)-oxiranecarbonitrile was 60 percent inhibition at 3 mM.
compound,measurement,setting,value
"C/C=C/C/C=C/CCC(=O)[C@H]1O[C@H]1C#N [3-(1-oxo-4,7-nonadienyl)oxirane-carbonitrile]",percent inhibition of Factor XIIIa,"at 3 mM, Factor XIII isolated from human plasma, 37° for 20 minutes",60%
same,inhibitory activity against Factor XIIIa (statement in words),plasma transglutaminase enzyme,inhibitory activity against Factor XIIIa
